Reference: patent US6900331B2, “Derivatives of epothilone B and D and synthesis thereof” (University of Notre Dame, priority 2002, dated 2005)

Columns and labels:
[1] = system: tubulin; experiment: Preliminary tubulin polymerization activity; assay type: biochemical; details: preliminary biological investigations
[2] = system: multi-drug resistant breast carcinoma cell line NCI/ADR; experiment: Cytotoxicity assay (SRB), NCI/ADR; assay type: cell-based, Human; details: 3 days exposure, SRB staining
Experimental: (§1) Cell lines and culture conditions: Human breast carcinoma cell line MCF-7, multi-drug resistant breast carcinoma cell line NCI/ADR, non-small cell lung carcinoma cell line NCI-H460 and glioma cell line SF-268 were obtained from the National Cancer Institute. All cell lines were maintained in RPMI-1640 medium (Gibco/BRL, Rockville, Md.) supplemented with 2 mM L-glutamine, 25 mM HEPES and 10% FBS (Hyclone, Logan, Utah). Cells were maintained in a humidified incubator at 37° C. in 5% CO2.
(§2) Cytoloxicity assays: Tumor cells were seeded in 100 μl at 5000 (MCF-7), 7500 (NCI/ADR), 5000 (NCI-H460) and 7500 (SF-268) cells per well in 96-well plates. Cells were allowed to adhere for 24 hours. Each compound ranging from 0.001 to 1000 nM in 100 μl was added to cells in triplicate wells. After 3 days, cells were fixed at 4° C. for 1 hour with 10% trichloroacetic acid and then stained with 0.2% sulforhodamine B (SRB)/1% acetic acid for 20 minutes at room temperature. The unbounded dye was rinsed away with 1% acetic acid, and the bounded SRB was then extracted with 200 μl of 10 mM Tris base. The absorbance was measured at 515 nm using a 96-well microtiter plate reader (Spectra Max 250, Molecular Devices). The IC50 values were calculated using a KaleidaGraph program. The experiments were performed twice.

[3] = system: non-small cell lung carcinoma cell line NCI-H460; experiment: Cytotoxicity assay (SRB), NCI-H460; assay type: cell-based, Human; details: 3 days exposure, SRB staining
Experimental: as §1, §2

[4] = system: Human breast carcinoma cell line MCF-7; experiment: Cytotoxicity assay (SRB), MCF-7; assay type: cell-based; details: 3 days exposure, SRB staining
Experimental: as §1, §2

[5] = system: glioma cell line SF-268; experiment: Cytotoxicity assay (SRB), SF-268; assay type: cell-based, Human; details: 3 days exposure, SRB staining
Experimental: as §1, §2

[6] = system: tumor cell; experiment: Tumor cell growth assays; assay type: cell-based; details: fold as active as epothilone B

C/C(=C\c1csc(C)n1)[C@H]1OC(=O)C[C@H](O)C(C)(C)C(=O)[C@H](C)[C@@H](O)[C@@H](C)CCC[C@@]2(C)O[C@H]2[C@@H]1C [Compound 3, (R)-C14-methyl epothilone B]
tubulin polymerization activity [1]: significant | IC50 [2]: 23 nM | IC50 [3]: 3 nM | IC50 [4]: 3 nM | IC50 [5]: 3 nM | activity relative to epothilone B itself [6]: > 2 ×

C/C(=C\c1csc(C)n1)[C@H]1OC(=O)C[C@H](O)C(C)(C)C(=O)[C@H](C)[C@@H](O)[C@@H](C)CCC[C@@]2(C)O[C@H]2[C@H]1C [Compound 4, (S)-C14-methyl epothilone B]
IC50 [2]: > 1000 nM | IC50 [3]: > 1000 nM | IC50 [4]: > 1000 nM | IC50 [5]: > 1000 nM

C/C1=C/[C@H](C)[C@@H](/C(C)=C/c2csc(C)n2)OC(=O)C[C@H](O)C(C)(C)C(=O)[C@H](C)[C@@H](O)[C@@H](C)CCC1 [Compound 12, (S)-C14-methyl epothilone D]
tubulin polymerization activity [1]: significant | IC50 ([2]; Homo sapiens, NCI/ADR-RES, 72 h): 238 nM | IC50 ([3]; Homo sapiens, NCI-H460, 72 h): 42 nM | IC50 ([4]; Homo sapiens, MCF7, 72 h): 35 nM | IC50 ([5]; Homo sapiens, SF-268, 72 h): 42 nM

C/C1=C/[C@@H](C)[C@@H](/C(C)=C/c2csc(C)n2)OC(=O)C[C@H](O)C(C)(C)C(=O)[C@H](C)[C@@H](O)[C@@H](C)CCC1 [Compound 13, (R)-C14-methyl epothilone D]
tubulin polymerization activity [1]: relatively weak activity | IC50 [2]: > 1000 nM | IC50 [3]: > 1000 nM | IC50 [4]: > 1000 nM | IC50 [5]: > 1000 nM

C/C1=C/C[C@@H](/C(C)=C/c2csc(C)n2)OC(=O)C[C@H](O)C(C)(C)C(=O)[C@H](C)[C@@H](O)[C@@H](C)CCC1 [Epothilone D, reference compound]
IC50 [2]: 26 nM | IC50 [3]: 20 nM | IC50 [4]: 5 nM | IC50 [5]: 7 nM
